{"source": "patent US20110123617A1", "about": "“CLIOQUINOL FOR THE TREATMENT OF HEMATOLOGICAL MALIGNANCIES” (priority 2007, published 2011)", "key": {"[1]": {"test_system": "chymotrypsin-like activity of the proteasome", "assay": "Proteasome activity after treatment of intact cell lines", "type": "cell-based", "settings": "intact leukemia and myeloma cell lines", "method": "A) Proteasome activity of MDAY-D2 and JJN3 cellular extracts after two hours of treatment with clioquinol (CQ), CuCl2 (Cu), or an equimolar concentration of CQ and Cu. After treatment, the preferential chymotrypsin-like substrate Suc-LLVY-AMC was added and the rate of free AMC was measured over time with a florescent spectrophotometric plate reader (excitation=380 nm, emission=460 nm). B) Proteasome activity of intact MDAY-D2 and JJN3 cells after two hours of treatment with clioquinol (CQ), CuCl2 (Cu), or an equimolar concentration of CQ and Cu. After treatment, the preferential chymotrypsin-like substrate Suc-LLVY-AMC was added and the rate of free AMC was measured over time with a florescent spectrophotometric plate reader (excitation=380 nm, emission=460 nm). Cellular proteins were extracted from cells with lysis buffer (50 mM HEPES pH 7.5, 150 mM NaCl, 2 mM ATP, and 1% Triton X-100). The chymotrypsin-like activity of the proteasome was measured by incubating equal amounts of protein with the preferential chymotrypsin-like substrate Suc-LLVY-AMC in assay buffer (50 mM Tris-HCl, pH 7.5, 150 mM NaCl) for two hours. After incubation, […] and the rate of free AMC was measured over time with a florescent spectrophotometric plate reader (excitation=380 nm, emission=460 nm). […]"}, "[2]": {"test_system": "chymotrypsin-like activity of the proteasome", "assay": "Proteasome activity in cell lysates (Suc-LLVY-AMC cleavage)", "type": "biochemical", "settings": "cell lysates from leukemia and myeloma cell lines", "method": "A) Proteasome activity of MDAY-D2 and JJN3 cellular extracts after two hours of treatment with clioquinol (CQ), CuCl2 (Cu), or an equimolar concentration of CQ and Cu. After treatment, the preferential chymotrypsin-like substrate Suc-LLVY-AMC was added and the rate of free AMC was measured over time with a florescent spectrophotometric plate reader (excitation=380 nm, emission=460 nm). B) Proteasome activity of intact MDAY-D2 and JJN3 cells after two hours of treatment with clioquinol (CQ), CuCl2 (Cu), or an equimolar concentration of CQ and Cu. After treatment, the preferential chymotrypsin-like substrate Suc-LLVY-AMC was added and the rate of free AMC was measured over time with a florescent spectrophotometric plate reader (excitation=380 nm, emission=460 nm). […] The chymotrypsin-like activity of the proteasome was measured by incubating equal amounts of protein with the preferential chymotrypsin-like substrate Suc-LLVY-AMC in assay buffer (50 mM Tris-HCl, pH 7.5, 150 mM NaCl) for two hours. After incubation, […] and the rate of free AMC was measured over time with a florescent spectrophotometric plate reader (excitation=380 nm, emission=460 nm). […] The chymotrypsin-like activity of the proteasome was measured by monitoring the rate of cleavage of the fluorescent substrate Suc-LLVY-AMC."}}, "data": [{"smiles": "[Cl][Cu][Cl]", "note": "[copper, CuCl2]", "values": [{"measurement": "chymotrypsin-like activity of the proteasome", "setting": "[1]", "result": "no effect on the function of proteasome"}, {"measurement": "rate of Suc-LLVY-AMC cleavage", "setting": "[2]", "result": "inhibited the rate of Suc-LLVY-AMC cleavage"}]}]}
